According to patent publication US20050165000A1, “Pharmaceutical compositions containing an hiv integrase inhibitor and a nonionic surfactant” (priority 2002, published 2005):

Experiments:
HIV replication = test: inhibition of acute HIV infection of T-lymphoid cells; assay type: cell-based
Text: The active drug substances employed in the pharmaceutical compositions of the present invention (e.g., the 8-hydroxy-1,6-naphthyridine-7-carboxamide compounds of Formula (I) and (II) and Compounds A and B) are inhibitors of HIV integrase. […] Integrase inhibition activity can be determined, for example, using the assay described in Hazuda et al., J. Virol. 1997, 71: 7005-7011. […] Further description of representative compound embraced by Formula I, assays for measuring their integrase inhibition activity and HIV replication activity can be found in WO 02/30930.

HIV integrase = molecular target: T1, HIV integrase (Human immunodeficiency virus type 1 group M subtype B, UniProt P04585); test: integrase inhibition assay, strand transfer catalyzed by recombinant integrase; assay type: biochemical
T1 construct: strand transfer is catalyzed by recombinant integrase
Text: Integrase inhibition activity can be determined, for example, using the assay described in Hazuda et al., J. Virol. 1997, 71: 7005-7011.

[1] = wettability and water solubility; assay type: physicochemical
Experimental: (§1) Since the physiological pH typically lies within this range, the rate of the drug's dissolution in and absorption from the gastrointestinal tract can be low, particularly when the drug is administered in a solid dosage form. The same or similar formulation difficulties can be expected for other 8-hydroxy-1,6-naphthyridine-7-carboxamides of this class and their salts having low solubility at physiological pH's.

[2] = oral bioavailability when administered to animals; assay type: in vivo
Experimental: as §1
Particle size can affect the oral bioavailability of the active drug substances employed in the pharmaceutical compositions of the invention. […] Accordingly, embodiments of the present invention include each of the pharmaceutical compositions defined and described above, wherein the active drug substance (i.e., Compound I or II or A or B or a pharmaceutically acceptable salt thereof) employed therein has a mean particle size of from about 1 to about 20 μm, or from about 1 to about 10 μm (e.g., from about 3 to about 6 μm wherein 90% of the particles are less than 10 μm).

[3] = in vitro dispersion of Compound A in aqueous surfactant solutions; assay type: physicochemical; conditions: aqueous media at physiological pHs, in the absence of a nonionic surfactant or in the presence of SLS; Na salt milled to 3 μm
Text: This PK data is consistent with the results of in vitro experiments characterizing the ability of these surfactants to disperse Compound A. In these experiments, Compound A Na salt (milled to a 3 μm mean particle size) was suspended in acidified aqueous solutions of the surfactant, and the surfactants were ranked for effectiveness in dispersing Compound A based on a visual evaluation of the suspension for turbidity and particle size. The visual evaluations were confirmed by measuring the particle size distributions in the suspensions using a laser scattering particle size distribution analyzer. The results of these tests have shown that Compound A drug particles flocculate in aqueous media at physiological pHs in the absence of a nonionic surfactant or in the presence of SLS.

[4] = animals, aqueous suspensions containing 0.5 wt. % methocel and 0.02 wt. % sodium lauryl sulfate

## CNC(=O)c1cc(F)ccc1CNC(=O)c1nc(N2CCCCS2(=O)=O)c2cccnc2c1O [Compound B, N-{4-fluoro-2-[(methylamino)carbonyl]benzyl}-5-(1,1-dioxido-1,2-thiazinan-2-yl)-8-hydroxy-1,6-naphthyridine-7-carboxamide]
HIV replication
  inhibition of HIV replication: very effective
HIV integrase
  HIV integrase inhibition in the strand transfer assay: potent HIV integrase inhibitors

## O=C(NCc1ccc(F)cc1)c1nc(N2CCCCS2(=O)=O)c2cccnc2c1O [Compound A, 5-(1,1-dioxido-1,2-thiazinan-2-yl)-N-(4-fluorobenzyl)-8-hydroxy-1,6-naphthyridine-7-carboxamide]
[1]
  wettability: poor wettability
[1]; pH's between about 2 and about 8
  water solubility: low water solubility
HIV replication
  inhibition of HIV replication: very effective
[2]; [4]
  oral bioavailability: satisfactory oral bioavailability
HIV integrase
  HIV integrase inhibition in the strand transfer assay: potent HIV integrase inhibitors
[3]
  dispersion of drug particles (turbidity, particle size): flocculate

## O=C(NCc1ccc(F)cc1)c1nc(N2CCCCS2(=O)=O)c2cccnc2c1[O-].[Na+] [Compound A sodium salt, 5-(N-1,4-butanesultam)-N-(4-fluorobenzyl)-8-hydroxy-1,6-naphthyridine-7-carboxamide sodium salt]
[2]; [4]
  oral bioavailability: satisfactory oral bioavailability
[2]; animals, wet granulated compressed tablets with lactose, hydroxypropylcellulose, Na croscarmellose, microcrystalline cellulose, Mg stearate (no surfactant)
  oral bioavailability: poor oral bioavailability
[2]; capsules containing bulk Compound A sodium salt, versus the suspension
  oral bioavailability: substantially lower oral bioavailability
